Paper PMC5384001 (Scientific Reports, 2017)
Where a chain is given by its changes, count along the chain named.

Tests used:
[1] = molecular target: T1, GluD2-Lc(Y770F) (Rattus norvegicus, UniProt Q63226, A654T/Y770F); assay: Two-electrode voltage clamp in Xenopus oocytes, inhibition of spontaneous currents; type: cell-based; details: fraction of spontaneous current inhibited by saturating D-serine
T1 construct: the function of full-length receptors as well, we introduced them into the GluD2 lurcher mutant (GluD2-Lc); expressed in transfected cells; host or cells: Xenopus laevis oocytes injected with cRNA
T1 sequence (Q63226 24-1007 A654T/Y770F): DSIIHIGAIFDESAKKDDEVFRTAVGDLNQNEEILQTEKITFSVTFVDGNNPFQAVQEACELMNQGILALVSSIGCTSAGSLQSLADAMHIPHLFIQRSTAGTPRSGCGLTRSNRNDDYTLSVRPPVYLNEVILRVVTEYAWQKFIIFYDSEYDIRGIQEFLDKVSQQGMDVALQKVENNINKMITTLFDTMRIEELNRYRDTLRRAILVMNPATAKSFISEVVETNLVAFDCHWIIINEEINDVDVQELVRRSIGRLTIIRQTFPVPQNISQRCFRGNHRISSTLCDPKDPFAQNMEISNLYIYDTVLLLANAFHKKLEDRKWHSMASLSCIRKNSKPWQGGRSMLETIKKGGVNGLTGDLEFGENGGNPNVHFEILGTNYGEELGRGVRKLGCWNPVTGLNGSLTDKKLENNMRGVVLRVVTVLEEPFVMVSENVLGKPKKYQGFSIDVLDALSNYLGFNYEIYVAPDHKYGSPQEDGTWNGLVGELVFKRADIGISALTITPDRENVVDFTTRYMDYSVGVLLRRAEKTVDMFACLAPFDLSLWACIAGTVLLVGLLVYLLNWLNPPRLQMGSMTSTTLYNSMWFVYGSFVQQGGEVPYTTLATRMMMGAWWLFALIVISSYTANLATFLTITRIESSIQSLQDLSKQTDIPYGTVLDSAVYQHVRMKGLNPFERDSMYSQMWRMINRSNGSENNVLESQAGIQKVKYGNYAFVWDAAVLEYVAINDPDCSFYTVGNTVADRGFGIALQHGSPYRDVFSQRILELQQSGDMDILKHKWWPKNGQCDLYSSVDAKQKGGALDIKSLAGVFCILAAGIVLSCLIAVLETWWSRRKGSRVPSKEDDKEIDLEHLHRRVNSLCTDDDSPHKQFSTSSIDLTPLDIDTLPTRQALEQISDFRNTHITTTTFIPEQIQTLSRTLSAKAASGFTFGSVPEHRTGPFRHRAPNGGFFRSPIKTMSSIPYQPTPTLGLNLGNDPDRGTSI
From the text: (§1) All cDNAs for expression in Xenopus oocytes were cloned into the vector pSGEM[30]. Point mutants of GluD2-Lc were constructed by overlap extension PCR with mutagenic oligonucleotide primers. The GluD2-Lc-(H)GluN1 chimera was constructed by transferring the S1- and S2-encoding sequences from GluD2-LBD-(H)GluN1 to GluD2-Lc via overlap extension PCR using tail primers. The S1 and S2 sequences were transferred separately, yielding GluD2-Lc-(HS1)GluN1 and GluD2-Lc-(HS2)GluN1 constructs. GluD2-Lc-(H)GluN1 was then produced from these by another overlap extension PCR. Complementary RNA (cRNA) for injection into oocytes was synthesised from 1 μg of linearised template DNA with the mMESSAGE mMACHINE in vitro transcription kit (Ambion, Austin, TX, USA).
(§2) Oocytes were obtained by surgically removing parts of the ovaries from Xenopus laevis (Nasco, Fort Atkinson, WI, USA) anaesthetised with 1.5 g/L 3-aminobenzoic acid ethylester (Sigma, Taufkirchen, Germany). […] Oocytes were injected with 11 ng cRNA (10 ng of each cRNA for co-expression of GluN1 and GluN2A) using a nanoliter injector (WPI, Sarasota, FL, USA). Four days after cRNA injection, current responses were recorded under voltage clamp at –70 mV with a Turbo Tec-10CD amplifier (npi electronic, Tamm, Germany) controlled by Patchmaster software (HEKA, Lambrecht, Germany). Currents were filtered with a 20 Hz low-pass filter and then digitised with a sampling rate of 50 Hz. Recording electrodes were pulled from borosilicate glass (Hilgenberg, Malsfeld, Germany) with an L/M-3P-A vertical pipette puller (List-Medical), filled with 3 M KCl, and had resistances of 0.5–5 MΩ (voltage electrode) or 0.5–1.5 MΩ (current electrode). Recordings were performed in a 50 μL chamber under constant superfusion with extracellular solution at a flow rate of 3–5 mL/min. […] Finally, Ba-NFR and then NMDGR were applied again to check for reversibility.

[2] = molecular target: T2, GluD2-Lc(A686S) (Rattus norvegicus, UniProt Q63226, A654T/A686S); assay: as above; type: cell-based; details: fraction of spontaneous current inhibited by saturating D-serine
T2 construct: the function of full-length receptors as well, we introduced them into the GluD2 lurcher mutant (GluD2-Lc); expressed in transfected cells; host or cells: Xenopus laevis oocytes injected with cRNA
T2 sequence (Q63226 24-1007 A654T/A686S): T1 sequence (Q63226 24-1007 A654T/Y770F) with A663S, F747Y
From the text: as §1, §2

Question: For `N[C@H](CO)C(=O)O` [D-serine], which “D-serine efficacy Mean ± SEM” value [1] is on record?
Answer: 59.9 ± 1.7%

Question: What about the “D-serine efficacy Mean ± SEM” value [2] of the same compound?
Answer: 43.9 ± 0.7%
